In US20030138375A1, “Individualization of therapy with Alzheimer's disease agents” (priority 2001, published 2003):
Where a name gives a salt, the structure may show the parent alone. Marks after values point to notes of the source that are not given here.

Legend:
[1] = tested on: individuals with mild to moderate Alzheimer's disease; conditions: cited from earlier work
[2] = cited from earlier work
AAMU-Ab = assay: Competitive antigen ELISA, cross-reactivity of AAMU-Ab; assay type: binding, rabbit; conditions: 0 = absence of inhibition or inhibition no higher than 40% at 5×10^−3 M
Procedure: Buffers and water without additives are filtered through millipore filters and kept for 1 week. BSA, antibodies, Tween™ 20 and horse radish peroxidase conjugates are added to these buffers and water just prior to use. Urine samples are usually collected 4 hours after drinking a cup of coffee (instant or brewed with approximately 100 mg of caffeine per cup) and stored at −80° C. The urine samples are diluted 10 times with sodium phosphate buffer (620 mosm, pH 7.50) and are subsequently diluted with water to give concentrations of AAMU and 1X no higher than 3×10^−6 M in the ELISA. All the pipettings are done with an eight-channel pipette, except those of the antibody and sample solutions. Starting with the last well, 100 μL of a carbonate buffer (100 mM, pH 9.6) containing 2.5 μg mL^−1 antibodies are added to each well. After 90 min. at room temperature, the wells are washed three times with 100 mL of TPB: isotonic sodium phosphate buffer (310 mosm, pH 7.50) containing 0.05% Tween™ 20.
After the initial wash, unoccupied sites are blocked by incubation for 90 min. at room temperature with 100 μL TBP containing 3% BSA. The wells are washed four times with 100 μL TPB. […] The microplate is gently shaken with an orbital shaker at room temperature for 3-4 hours. The wells are washed three times with 100 μL TPB containing 1% BSA and three times with water containing 0.05% Tween™ 20. […]

COc1cc2c(cc1OC)C(=O)C(CC1CCN(Cc3ccccc3)CC1)C2 (racemic) [Donepezil, (±)-2,3-dihydro-5,6-dimethoxy-2-[[1-(phenylmethyl)-4-piperidinyl]methyl] -1H-inden-1-onehydrochloride]
effect size on the ADAS-Cog vs placebo ([1]; 5 mg or 10 mg per day, over 24 weeks): about 3 points

COc1cc2c(cc1O)C(=O)C(CC1CCN(Cc3ccccc3)CC1)C2 (stereo not drawn) [6-O-desmethyl donepezil]
plasma radioactivity, expressed as a percent of the administered dose ([2]; 14C-labeled donepezil): 11%
plasma concentration relative to donepezil ([2]; in vivo): about 20%

Nc1c2c(nc3ccccc13)CCCC2 [Tacrine]
improvement in cognitive function on the ADAS-Cog ([1]; 40 mg four times daily, over 12 weeks): about 2 points
persons who had to discontinue the drug due to side effects ([1]; human, in vivo): up to half

O=c1[nH]c(=O)c2[nH]cnc2[nH]1 [Xanthine]
% Cross-Reaction AAMU-Ab (AAMU-Ab): 0^a %
